Converted amounts (≈) assume the structure as drawn.
Test system: bacteria
Experiment: MIC determination, positive control (strain not stated)
Conditions: 24 h

Compound: CN[C@H](CC(C)C)C(=O)N[C@H]1C(=O)N[C@@H](CC(N)=O)C(=O)N[C@H]2C(=O)N[C@H]3C(=O)N[C@H](C(=O)N[C@H](C(=O)O)c4cc(O)cc(O)c4-c4cc3ccc4O)[C@H](O)c3ccc(c(Cl)c3)Oc3cc2cc(c3O[C@@H]2O[C@H](CO)[C@@H](O)[C@H](O)[C@H]2O[C@H]2C[C@](C)(N)[C@H](O)[C@H](C)O2)Oc2ccc(cc2Cl)[C@H]1O [vancomycin]
- MIC: 1 µg/mL (≈ 0.69 µM)
